In ChEMBL document CHEMBL1201861, “Genomics of Drug Sensitity in Cancer screening data, Wellcome Trust Sanger Institute”:

Columns and labels:
Experiment in all cases: cells
[1] = tested on: TE-6; type: functional, cell-based, Homo sapiens;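 also: growth inhibition of TE-6 cells, read out with a cell viability assay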
Description: SANGER: Inhibition of human TE-6 cell growth in a cell viability assay.

[2] = tested on: MSTO-211H; type: functional, cell-based, Homo sapiens
Description: SANGER: Inhibition of human MSTO-211H cell growth in a cell viability assay.

[3] = tested on: CP66-MEL; type: functional, cell-based, Homo sapiens;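 also: growth inhibition of CP66-MEL cells determined in a cell viability assay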
Description: SANGER: Inhibition of human CP66-MEL cell growth in a cell viability assay.

[4] = tested on: SNU-5; type: functional, cell-based, Homo sapiens;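 also: cell viability readout used to measure growth inhibition in human NCI-SNU-5 cells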
Description: SANGER: Inhibition of human NCI-SNU-5 cell growth in a cell viability assay.

[5] = tested on: CAS-1; type: functional, cell-based, Homo sapiens;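 also: growth inhibition of CAS-1 cells, measured with a cell viability assay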
Description: SANGER: Inhibition of human CAS-1 cell growth in a cell viability assay.

[6] = tested on: HDLM-2; type: functional, cell-based, Homo sapiens;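 also: cell viability assay measuring suppression of HDLM-2 proliferation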
Description: SANGER: Inhibition of human HDLM-2 cell growth in a cell viability assay.

[7] = tested on: TE-1; type: functional, cell-based, Homo sapiens;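 also: growth inhibition of the human TE-1 cell line, read out with a cell viability assay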
Description: SANGER: Inhibition of human TE-1 cell growth in a cell viability assay.

[8] = tested on: MZ7-mel; type: functional, cell-based, Homo sapiens;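 also: growth inhibition of human MZ7-mel cells, measured by a cell viability assay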
Description: SANGER: Inhibition of human MZ7-mel cell growth in a cell viability assay.

[9] = tested on: RS4-11; type: functional, cell-based, Homo sapiens;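 also: growth inhibition of RS4-11 cells, read out by a cell viability assay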
Description: SANGER: Inhibition of human RS4-11 cell growth in a cell viability assay.

[10] = tested on: NCI-H1155; type: functional, cell-based, Homo sapiens;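 also: cell growth inhibition measured by a viability assay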
Description: SANGER: Inhibition of human NCI-H1155 cell growth in a cell viability assay.

[11] = tested on: EM-2; type: functional, cell-based, Homo sapiens;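 also: growth inhibition of EM-2 cells, read out with a cell viability assay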
Description: SANGER: Inhibition of human EM-2 cell growth in a cell viability assay.

[12] = tested on: UACC-257; type: functional, cell-based, Homo sapiens
Description: SANGER: Inhibition of human UACC-257 cell growth in a cell viability assay.

[13] = tested on: D-263MG; type: functional, cell-based, Homo sapiens
Description: SANGER: Inhibition of human D-263MG cell growth in a cell viability assay.

[14] = tested on: VA-ES-BJ; type: functional, cell-based, Homo sapiens;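 also: growth inhibition of the VA-ES-BJ cell line, read out by a cell viability assay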
Description: SANGER: Inhibition of human VA-ES-BJ cell growth in a cell viability assay.

[15] = tested on: NTERA-2-cl-D1; type: functional, cell-based, Homo sapiens;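 also: inhibition of cell growth, measured with a cell viability assay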
Description: SANGER: Inhibition of human NTERA-S-cl-D1 cell growth in a cell viability assay.

[16] = tested on: MV4-11; type: functional, cell-based, Homo sapiens, MV-4-11;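 also: cell viability readout measuring growth inhibition of human MV-4-11 cells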
Description: SANGER: Inhibition of human MV-4-11 cell growth in a cell viability assay.

[17] = tested on: SW 954; type: functional, cell-based, Homo sapiens;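 also: growth inhibition of SW954 human cancer cells, read out as cell viability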
Description: SANGER: Inhibition of human SW954 cell growth in a cell viability assay.

[18] = tested on: TE-8; type: functional, cell-based, Homo sapiens;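 also: growth inhibition of TE-8 cells, measured with a cell viability readout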
Description: SANGER: Inhibition of human TE-8 cell growth in a cell viability assay.

[19] = tested on: MOLT-4; type: functional, cell-based, Homo sapiens;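 also: growth inhibition of MOLT-4 cells, determined with a cell viability readout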
Description: SANGER: Inhibition of human MOLT-4 cell growth in a cell viability assay.

[20] = tested on: DU-4475; type: functional, cell-based, Homo sapiens
Description: SANGER: Inhibition of human DU-4475 cell growth in a cell viability assay.

[21] = tested on: BT-474; type: functional, cell-based, Homo sapiens
Description: SANGER: Inhibition of human BT-474 cell growth in a cell viability assay.

[22] = tested on: MHH-PREB-1; type: functional, cell-based, Homo sapiens;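 also: cell viability assay measuring inhibition of proliferation of human MHH-PREB-1 cells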
Description: SANGER: Inhibition of human MHH-PREB-1 cell growth in a cell viability assay.

[23] = tested on: LB2241-RCC; type: functional, cell-based, Homo sapiens;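 also: cell viability assay measuring how strongly the cultured human renal carcinoma line is prevented from growing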
Description: SANGER: Inhibition of human LB2241-RCC cell growth in a cell viability assay.

[24] = tested on: NB12; type: functional, cell-based, Homo sapiens;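 also: growth inhibition of human NB12 cells, read out by a cell viability assay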
Description: SANGER: Inhibition of human NB12 cell growth in a cell viability assay.

[25] = tested on: ALL-PO; type: functional, cell-based, Homo sapiens;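 also: growth inhibition of ALL-PO cells, read out by a cell viability assay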
Description: SANGER: Inhibition of human ALL-PO cell growth in a cell viability assay.

[26] = tested on: 697; type: functional, cell-based, Homo sapiens
Description: SANGER: Inhibition of human 697 cell growth in a cell viability assay.

[27] = tested on: SH-4; type: functional, cell-based, Homo sapiens;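 also: growth inhibition of SH-4 cells, read out with a cell viability assay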
Description: SANGER: Inhibition of human SH-4 cell growth in a cell viability assay.

[28] = tested on: NKM-1; type: functional, cell-based, Homo sapiens;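 also: growth inhibition of NKM-1 cells, read out with a cell viability assay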
Description: SANGER: Inhibition of human NKM-1 cell growth in a cell viability assay.

[29] = tested on: NCI-H1304; type: functional, cell-based, Homo sapiens;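 also: growth inhibition of the cancer cell line, measured in a cell viability assay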
Description: SANGER: Inhibition of human NCI-H1304 cell growth in a cell viability assay.

[30] = tested on: no-11; type: functional, cell-based, Homo sapiens;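 also: growth inhibition of human NO-11 cells, read out with a cell viability assay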
Description: SANGER: Inhibition of human no-11 cell growth in a cell viability assay.

[31] = tested on: SK-N-DZ; type: functional, cell-based, Homo sapiens;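 also: growth inhibition of the cancer cell line, read out through a viability assay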
Description: SANGER: Inhibition of human SK-N-DZ cell growth in a cell viability assay.

[32] = tested on: TGBC24TKB; type: functional, cell-based, Homo sapiens;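 also: growth inhibition of human TGBC24TKB cells, read out with a cell viability assay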
Description: SANGER: Inhibition of human TGBC24TKB cell growth in a cell viability assay.

[33] = tested on: NMC-G1; type: functional, cell-based, Homo sapiens;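 also: growth inhibition of the NMC-G1 cell line, measured with a cell viability read-out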
Description: SANGER: Inhibition of human NMC-G1 cell growth in a cell viability assay.

[34] = tested on: SK-NEP-1; type: functional, cell-based, Homo sapiens;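 also: growth inhibition of human SK-NEP-1 cells, read out by a cell viability assay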
Description: SANGER: Inhibition of human SK-NEP-1 cell growth in a cell viability assay.

[35] = tested on: LB996-RCC; type: functional, cell-based, Homo sapiens
Description: SANGER: Inhibition of human LB996-RCC cell growth in a cell viability assay.

[36] = tested on: JVM-2; type: functional, cell-based, Homo sapiens;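 also: growth inhibition of JVM-2 cells determined by a cell viability assay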
Description: SANGER: Inhibition of human JVM-2 cell growth in a cell viability assay.

[37] = tested on: SW 962; type: functional, cell-based, Homo sapiens;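 also: growth inhibition of human SW962 cells, read out by a cell viability assay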
Description: SANGER: Inhibition of human SW962 cell growth in a cell viability assay.

[38] = tested on: COLO-684; type: functional, cell-based, Homo sapiens
Description: SANGER: Inhibition of human COLO-684 cell growth in a cell viability assay.

[39] = tested on: NOS-1; type: functional, cell-based, Homo sapiens;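 also: growth inhibition of the human NOS-1 cell line, read out with a cell viability assay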
Description: SANGER: Inhibition of human NOS-1 cell growth in a cell viability assay.

[40] = tested on: LB831-BLC; type: functional, cell-based, Homo sapiens;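 also: growth inhibition of LB831-BLC cells, read out with a cell viability assay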
Description: SANGER: Inhibition of human LB831-BLC cell growth in a cell viability assay.

[41] = tested on: ACN; type: functional, cell-based, Homo sapiens;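 also: growth inhibition of the human ACN cell line, read out via cell viability testing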
Description: SANGER: Inhibition of human ACN cell growth in a cell viability assay.

[42] = tested on: KARPAS-299; type: functional, cell-based, Homo sapiens
Description: SANGER: Inhibition of human KARPAS-299 cell growth in a cell viability assay.

[43] = tested on: MEG-01; type: functional, cell-based, Homo sapiens;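 also: growth inhibition of MEG-01 cells, read out by a cell viability assay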
Description: SANGER: Inhibition of human MEG-01 cell growth in a cell viability assay.

[44] = tested on: GI-ME-N; type: functional, cell-based, Homo sapiens;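 also: growth inhibition of human GI-ME-N cells, read out with a cell viability assay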
Description: SANGER: Inhibition of human GI-ME-N cell growth in a cell viability assay.

[45] = tested on: OCI-AML2; type: functional, cell-based, Homo sapiens;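 also: growth inhibition of OCI-AML2 cells, read out with a cell viability assay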
Description: SANGER: Inhibition of human OCI-AML2 cell growth in a cell viability assay.

[46] = tested on: NCI-H1395; type: functional, cell-based, Homo sapiens;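 also: cell viability assay read-out quantifying reduced proliferation of human NCI-H1395 cells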
Description: SANGER: Inhibition of human NCI-H1395 cell growth in a cell viability assay.

[47] = tested on: HuTu80; type: functional, cell-based, Homo sapiens, HUTU-80;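 also: growth inhibition of HuTu80 human cells, determined with a cell viability readout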
Description: SANGER: Inhibition of human HUTU-80 cell growth in a cell viability assay.

[48] = tested on: KS-1; type: functional, cell-based, Homo sapiens;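 also: growth inhibition of KS-1 cells, read out with a cell viability assay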
Description: SANGER: Inhibition of human KS-1 cell growth in a cell viability assay.

`O=C(O)c1ccc(-c2c[nH]c3ncc(-c4ccccc4)cc23)cc1C1CCCC1` [GSK-650394] gave an IC50 ([1]; Homo sapiens, TE-6) of over 16 µM, an IC50 ([2]; Homo sapiens, MSTO-211H) of over 16 µM and an IC50 ([3]; Homo sapiens, CP66-MEL) of over 16 µM. For the same molecule, the IC50 ([4]; Homo sapiens, SNU-5) was over 16 µM, the IC50 ([5]; Homo sapiens, CAS-1) was 11 µM and the IC50 ([6]; Homo sapiens, HDLM-2) was over 16 µM. The IC50 ([7]; Homo sapiens, TE-1) was over 16 µM, the IC50 ([8]; Homo sapiens, MZ7-mel) was over 16 µM and the IC50 ([9]; Homo sapiens, RS4-11) was 8.96 µM. The IC50 ([10]; Homo sapiens, NCI-H1155) was over 16 µM, the IC50 ([11]; Homo sapiens, EM-2) was over 16 µM and the IC50 ([12]; Homo sapiens, UACC-257) was over 16 µM. It also gave an IC50 ([13]; Homo sapiens, D-263MG) of 13.7 µM, an IC50 ([14]; Homo sapiens, VA-ES-BJ) of 9.04 µM and an IC50 ([15]; Homo sapiens, NTERA-2-cl-D1) of 3.55 µM. The IC50 ([16]; Homo sapiens, MV4-11) was 0.165 µM, the IC50 ([17]; Homo sapiens, SW 954) was 4.46 µM and the IC50 ([18]; Homo sapiens, TE-8) was 4.12 µM. For the same molecule, the IC50 ([19]; Homo sapiens, MOLT-4) was over 16 µM, the IC50 ([20]; Homo sapiens, DU-4475) was over 16 µM and the IC50 ([21]; Homo sapiens, BT-474) was over 16 µM. For the same molecule, the IC50 ([22]; Homo sapiens, MHH-PREB-1) was over 16 µM, the IC50 ([23]; Homo sapiens, LB2241-RCC) was over 16 µM and the IC50 ([24]; Homo sapiens, NB12) was over 16 µM. The IC50 ([25]; Homo sapiens, ALL-PO) was 5.73 µM, the IC50 ([26]; Homo sapiens) was over 16 µM and the IC50 ([27]; Homo sapiens, SH-4) was over 16 µM. For the same molecule, the IC50 ([28]; Homo sapiens, NKM-1) was 2.77 µM, the IC50 ([29]; Homo sapiens, NCI-H1304) was over 16 µM and the IC50 ([30]; Homo sapiens) was over 16 µM. The IC50 ([31]; Homo sapiens, SK-N-DZ) was over 16 µM, the IC50 ([32]; Homo sapiens, TGBC24TKB) was over 16 µM and the IC50 ([33]; Homo sapiens, NMC-G1) was over 16 µM. It also gave an IC50 ([34]; Homo sapiens, SK-NEP-1) of over 16 µM, an IC50 ([35]; Homo sapiens, LB996-RCC) of over 16 µM and an IC50 ([36]; Homo sapiens, JVM-2) of over 16 µM. For the same molecule, the IC50 ([37]; Homo sapiens, SW 962) was over 16 µM, the IC50 ([38]; Homo sapiens, COLO-684) was over 16 µM and the IC50 ([39]; Homo sapiens, NOS-1) was over 16 µM. The IC50 ([40]; Homo sapiens, LB831-BLC) was over 16 µM, the IC50 ([41]; Homo sapiens, ACN) was over 16 µM and the IC50 ([42]; Homo sapiens, KARPAS-299) was over 16 µM. The IC50 ([43]; Homo sapiens, MEG-01) was 5.26 µM, the IC50 ([44]; Homo sapiens, GI-ME-N) was over 16 µM and the IC50 ([45]; Homo sapiens, OCI-AML2) was over 16 µM. The IC50 ([46]; Homo sapiens, NCI-H1395) was over 16 µM, the IC50 ([47]; Homo sapiens, HuTu80) was 1.3 µM and the IC50 ([48]; Homo sapiens, KS-1) was over 16 µM.
With BLEOMYCIN the IC50 ([1]; te-6) was 12.4 µM, the IC50 ([2]; msto-211h) was 149 µM and the IC50 ([3]; cp66-mel) was 957 µM. It also gave an IC50 ([4]; snu-5) of 0.643 µM, an IC50 ([5]; cas-1) of 81 µM and an IC50 ([6]; hdlm-2) of 14.3 µM. The IC50 ([7]; te-1) was 6.43 µM, the IC50 ([8]; mz7-mel) was 0.13 µM and the IC50 ([9]; rs4-11) was 0.00164 µM. The IC50 ([10]; nci-h1155) was 73.2 µM, the IC50 ([11]; em-2) was 84.8 µM and the IC50 ([12]; uacc-257) was 234 µM. It also gave an IC50 ([13]; d-263mg) of 142 µM, an IC50 ([14]; va-es-bj) of 0.26 µM and an IC50 ([15]; ntera-2-cl-d1) of 0.000139 µM. It also gave an IC50 ([16]; mv-4-11) of 0.00991 µM, an IC50 ([17]; sw 954) of 0.00957 µM and an IC50 ([18]; te-8) of 0.377 µM. For the same molecule, the IC50 ([19]; molt-4) was 1.77 µM, the IC50 ([20]; du-4475) was 1.27 µM and the IC50 ([21]; bt-474) was 2080 µM. It also gave an IC50 ([22]; mhh-preb-1) of 836 µM, an IC50 ([23]; lb2241-rcc) of 0.738 µM and an IC50 ([24]; nb12) of 82.4 µM. It also gave an IC50 ([25]; all-po) of 0.986 µM, an IC50 [26] of 1.58 µM and an IC50 ([27]; sh-4) of 7.85 µM. For the same molecule, the IC50 ([28]; nkm-1) was 0.00765 µM, the IC50 ([29]; nci-h1304) was 4.1 µM and the IC50 [30] was 85.6 µM. It also gave an IC50 ([31]; sk-n-dz) of 170 µM, an IC50 ([32]; tgbc24tkb) of 204 µM and an IC50 ([33]; nmc-g1) of 0.0119 µM. It also gave an IC50 ([34]; sk-nep-1) of 31.9 µM, an IC50 ([35]; lb996-rcc) of 0.175 µM and an IC50 ([36]; jvm-2) of 0.572 µM. For the same molecule, the IC50 ([37]; sw 962) was 1.95 µM, the IC50 ([38]; colo-684) was 237 µM and the IC50 ([39]; nos-1) was 1.31 µM. It also gave an IC50 ([40]; lb831-blc) of 8.38 µM, an IC50 ([41]; acn) of 0.808 µM and an IC50 ([42]; karpas-299) of 27.2 µM. For the same molecule, the IC50 ([43]; meg-01) was 0.395 µM, the IC50 ([44]; gi-me-n) was 0.441 µM and the IC50 ([45]; oci-aml2) was 2.26 µM. For the same molecule, the IC50 ([46]; nci-h1395) was 384 µM, the IC50 ([47]; hutu-80) was 0.000136 µM and the IC50 ([48]; ks-1) was 0.0108 µM.
